Experiment in all cases: Test 1A glasshouse assay, post-emergence herbicidal activity
Common to all, as to format: in vivo

In assay [1] the test system is Alopecurus myosuroides (ALOMY). The following applies: Alopecurus myosuroides, 312 h, application rate 250 g/ha, 13 days after application, visual (100%=total damage; 0%=no damage), read-out: Post-emergence Herbicidal Activity (% Phytotoxicity) ALOMY. A digest of the protocol:
(§1)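 Test species were sown in pots of standard soil and cultivated for 8 days at 24/16 °C (day/night) with 14 h light and 65% humidity. Plants were next sprayed with the formulated active ingredient (acetone/water 50:50, 0.5% Tween 20). Damage was rated visually as % phytotoxicity 13 days later.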

The next assay deals with Avena fatua (AVEFA). The following applies: Avena fatua, 312 h, application rate 250 g/ha, 13 days after application, visual (100%=total damage; 0%=no damage), read-out: Post-emergence Herbicidal Activity (% Phytotoxicity) AVEFA. A digest of the protocol: as §1
The test system of a further assay is Lolium perenne (LOLPE). The following applies: Lolium perenne, 312 h, application rate 250 g/ha, 13 days after application, visual (100%=total damage; 0%=no damage), read-out: Post-emergence Herbicidal Activity (% Phytotoxicity) LOLPE. The gist of the method: as §1
For assay [2], the system named is Echinochloa crus-galli (ECHCG). Particulars: Echinochloa crus-galli, 312 h, application rate 250 g/ha, 13 days after application, visual (100%=total damage; 0%=no damage), read-out: Post-emergence Herbicidal Activity (% Phytotoxicity) ECHCG. A digest of the protocol: as §1

SMILES strings stand for the structures.

For the molecule `CC#Cc1cc(C)c(C2C(=O)CC(CCNC(=O)c3ccccn3)C2=O)c(CC)c1` (stereo not shown) [Compound A84, N-[2-[3-(2-ethyl-6-methyl-4-prop-1-ynyl-phenyl)-2,4-dioxo-cyclopentyl]ethyl]pyridine-2-carboxamide], the pest or weed control at 250 g/ha (in assay [1]; in the assay on Avena fatua (AVEFA); with Lolium perenne (LOLPE); in assay [2]) was 100% throughout.

As to `C#Cc1cc(C)c(C2C(=O)CC(CCNC(=O)c3ccccn3)C2=O)c(CC)c1` (stereo not shown) [Compound A85, N-[2-[3-(2-ethyl-4-ethynyl-6-methyl-phenyl)-2,4-dioxo-cyclopentyl]ethyl]pyridine-2-carboxamide], the pest or weed control at 250 g/ha in assay [1] was 90%; in the assay with Avena fatua (AVEFA), 100%; in the assay with Lolium perenne (LOLPE) it was 100%; in assay [2], 100%.

Consider `CCc1cc(-c2ccc(F)cc2)cc(C)c1C1C(=O)CC(CCNC(=O)c2ccccn2)C1=O` (stereo not shown) [Compound A86, N-[2-[3-[2-ethyl-4-(4-fluorophenyl)-6-methyl-phenyl]-2,4-dioxo-cyclopentyl]ethyl]pyridine-2-carboxamide], for which the pest or weed control at 250 g/ha (in assay [1]; in the assay with Avena fatua (AVEFA); in the assay on Lolium perenne (LOLPE); in assay [2]) was 100% throughout.

Take `CCC(CC1CC(=O)C(c2c(C)cc(C)cc2C)C1=O)NC(=O)c1ccccc1` (stereo not shown) [Compound A88]: the pest or weed control at 250 g/ha was found to be 80% in assay [1], 90% with Avena fatua (AVEFA), 100% in the assay with Lolium perenne (LOLPE) and 100% in assay [2].

With `Cc1cc(C)c(C2C(=O)CC(CCNC(=O)c3cccc(F)n3)C2=O)c(C)c1` (stereo not shown) [Compound A89A], the pest or weed control at 250 g/ha (in assay [1]; in the assay with Avena fatua (AVEFA); in the assay with Lolium perenne (LOLPE); in assay [2]) was 100% throughout.

As to `COc1cccc(C(=O)NCCC2CC(=O)C(c3c(C)cc(C)cc3C)C2=O)n1` (stereo not shown) [Compound A91], the pest or weed control at 250 g/ha (in assay [1]; with Avena fatua (AVEFA); in the assay on Lolium perenne (LOLPE); in assay [2]) was 80% throughout.

With `CCOc1cccc(C(=O)NCCC2CC(=O)C(c3c(C)cc(C)cc3C)C2=O)n1` (stereo not shown) [Compound A92], the pest or weed control at 250 g/ha in assay [1] was 80%; in the assay with Avena fatua (AVEFA) it was 80%; in the assay with Lolium perenne (LOLPE) it was 70%; in assay [2], 70%.

On to `Cc1cc(C)c(C2C(=O)CC(CCNC(=O)c3cccc(-c4ccccc4)n3)C2=O)c(C)c1` (stereo not shown) [Compound A93], for which the pest or weed control at 250 g/ha in assay [1] was 70%; with Avena fatua (AVEFA), 40%; in the assay on Lolium perenne (LOLPE), 70%; in assay [2], 50%.

As to `Cc1cc(C)c(C2C(=O)CC(CCNC(=O)c3cccc(C(F)(F)F)n3)C2=O)c(C)c1` (stereo not shown) [Compound A94], the pest or weed control at 250 g/ha is 90% in assay [1], 100% with Avena fatua (AVEFA), 80% with Lolium perenne (LOLPE) and 90% in assay [2].

Take `Cc1cc(C)c(C2C(=O)CC(CCNC(=O)c3ncccc3F)C2=O)c(C)c1` (stereo not shown) [Compound A96]: the pest or weed control at 250 g/ha (in assay [1]; with Avena fatua (AVEFA); in the assay on Lolium perenne (LOLPE); in assay [2]) was 100% in each case.

For the molecule `Cc1cc(C)c(C2C(=O)CC(CCNC(=O)c3ccc(F)cn3)C2=O)c(C)c1` (stereo not shown) [Compound A97], the pest or weed control at 250 g/ha (in assay [1]; in the assay with Avena fatua (AVEFA); in the assay on Lolium perenne (LOLPE); in assay [2]) was 100% each time.

As to `Cc1cc(-c2ncc(Cl)cc2F)cc(C)c1C1C(=O)CC(CCNC(=O)c2ccccn2)C1=O` (stereo not shown) [Compound A102], the pest or weed control at 250 g/ha (in assay [1]; in the assay with Avena fatua (AVEFA); in the assay on Lolium perenne (LOLPE); in assay [2]) was 100% in each case.

As for `Cc1cc(-c2ccc(Cl)cc2)cc(C)c1C1C(=O)CC(CCNC(=O)c2ccccn2)C1=O` (stereo not shown) [Compound A104], the pest or weed control at 250 g/ha in assay [1] was 90%; in the assay on Avena fatua (AVEFA), 90%; with Lolium perenne (LOLPE) it was 100%; in assay [2] it was 100%.

As to `Cc1cc(Cl)c(C2C(=O)CC(CCNC(=O)c3ccccn3)C2=O)c(Cl)c1` (stereo not shown) [Compound A105], the pest or weed control at 250 g/ha was 40% in assay [1], 90% in the assay on Avena fatua (AVEFA), 90% with Lolium perenne (LOLPE) and 100% in assay [2].

In the case of `O=C(NCCC1CC(=O)C(c2c(Cl)cc(-c3ccc(F)cc3)cc2Cl)C1=O)c1ccccn1` (stereo not shown) [Compound A106], the pest or weed control at 250 g/ha in assay [1] turned out to be 90%; in the assay with Avena fatua (AVEFA), 100%; with Lolium perenne (LOLPE), 100%; in assay [2], 100%.

As to `Cc1cc(-c2cc(F)cc(F)c2)cc(C)c1C1C(=O)CC(CCNC(=O)c2ccccn2)C1=O` (stereo not shown) [Compound A109], the pest or weed control at 250 g/ha (in assay [1]; with Avena fatua (AVEFA); in the assay on Lolium perenne (LOLPE); in assay [2]) was 100% throughout.

Take `Cc1cc(-c2ccc(F)c(Cl)c2)cc(C)c1C1C(=O)CC(CCNC(=O)c2ccccn2)C1=O` (stereo not shown) [Compound A110]: the pest or weed control at 250 g/ha came out at 90% in assay [1], 100% with Avena fatua (AVEFA), 100% with Lolium perenne (LOLPE) and 100% in assay [2].

In the case of `Cc1cc(-c2cccc(Cl)c2)cc(C)c1C1C(=O)CC(CCNC(=O)c2ccccn2)C1=O` (stereo not shown) [Compound A111, N-[2-[3-[4-(3-chlorophenyl)-2,6-dimethyl-phenyl]-2,4-dioxo-cyclopentyl]ethyl]pyridine-2-carboxamide], the pest or weed control at 250 g/ha (in assay [1]; in the assay with Avena fatua (AVEFA); in the assay with Lolium perenne (LOLPE); in assay [2]) was 100% each time.

Consider `CC#Cc1cc(C)c(C2C(=O)CC(CCNC(=O)c3cccc(F)n3)C2=O)c(C)c1` (stereo not shown) [Compound A114], for which the pest or weed control at 250 g/ha (in assay [1]; with Avena fatua (AVEFA); with Lolium perenne (LOLPE); in assay [2]) was 100% throughout.

Turning to `CC#Cc1cc(C)c(C2C(=O)CC(CCNC(=O)C(C)(C)C)C2=O)c(C)c1` (stereo not shown) [Compound A115], the pest or weed control at 250 g/ha (in assay [1]; in the assay with Avena fatua (AVEFA); in the assay with Lolium perenne (LOLPE); in assay [2]) was 100% throughout.

`CC#Cc1cc(C)c(C2C(=O)CC(CCNC(=O)c3ccc(F)cc3)C2=O)c(C)c1` (stereo not shown) [Compound A116]: the pest or weed control at 250 g/ha in assay [1] came out at 90%; in the assay with Avena fatua (AVEFA) it was 100%; in the assay on Lolium perenne (LOLPE) it was 100%; in assay [2], 100%.

In the case of `Cc1cc(-c2ccc(F)cn2)cc(C)c1C1C(=O)CC(CCNC(=O)c2ccccn2)C1=O` (stereo not shown) [Compound A117], the pest or weed control at 250 g/ha (in assay [1]; with Avena fatua (AVEFA); with Lolium perenne (LOLPE); in assay [2]) was 100% in each case.

Values taken from patent US9808003B2, “Herbicidally active 2-(substituted-phenyl)-cyclopentane-1,3-dione compounds and derivatives thereof” (Syngenta Limited, priority 2013, dated 2017).
